Values quoted from earlier work in patent US11739076B2, “Compound or its salt thereof targeting fibroblast activation protein, its preparation methods and its uses thereof” (Institute of Nuclear Energy Research Atomic Energy Council, …, priority 2021, dated 2023).

Legend:
[1] = test system: FAP and DDP4
[2] = test system: tumor; conditions: in vivo

| SMILES | binding ratio of FAP and DDP4 [1] | tumor uptake and tumor-to-tissue ratio [2] | accumulation in the oral mucosa, salivary glands and thyroid glands ([2]; po) |
| --- | --- | --- | --- |
| N#C[C@@H]1CCCN1C(=O)CNC(=O)c1ccnc2ccc(OCCCN3CCN(C(=O)CN4CCN(CC(=O)O)CCN(CC(=O)O)CCN(CC(=O)O)CC4)CC3)cc12 [FAPI-02] | 45 |  |  |
| CN(CCCN1CCN(C(=O)CN2CCN(CC(=O)O)CCN(CC(=O)O)CCN(CC(=O)O)CC2)CC1)c1ccc2nccc(C(=O)NCC(=O)N3CC(F)(F)C[C@H]3C#N)c2c1 [FAPI-46] |  | excellent tumor uptake and high tumor-to-tissue ratio | does not |
| N#C[C@@H]1CC(F)(F)CN1C(=O)CNC(=O)c1ccnc2ccc(OCCCN3CCN(C(=O)CN4CCN(CC(=O)O)CCN(CC(=O)O)CCN(CC(=O)O)CC4)CC3)cc12 [FAPI-04] | 750 |  |  |
